# How the values were obtained:
# [1] = test system: PQS-2302-WT (RNA, G4) GGGGAGGAGG; assay: fluorescence enhancement; settings: 150 mM KCl; 10 mM Tris-HCl pH 7.5; 2 µM RNA, 2 µM dye; higher than in LiCl
# [2] = test system: PQS-1682-WT (RNA, G4) GGAGGUGGAUGG; assay: fluorescence enhancement; settings: 150 mM KCl; 10 mM Tris-HCl pH 7.5; 2 µM RNA, 2 µM dye
# [3] = test system: PQS-1276-WT (RNA, G4) GGGCCUCGGGGAACGGGGGCCGGG; assay: fluorescence enhancement; settings: 150 mM KCl; 10 mM Tris-HCl pH 7.5; 2 µM RNA, 2 µM dye; higher than in LiCl
# [4] = test system: PQS-91-WT (RNA, G4) GGGGGGAGGGCCGGG; assay: fluorescence enhancement; settings: 150 mM KCl, 10 mM Tris-HCl pH 7.5, 2 µM RNA, 2 µM dye
# [5] = test system: PQS-1234-WT (RNA, G4) GGGUUAGCCAGGGCCGAGGGGGGCUGGG; assay: fluorescence enhancement; settings: 150 mM KCl; 10 mM Tris-HCl pH 7.5; 2 µM RNA, 2 µM dye; higher than in LiCl
# [6] = test system: TERRA-WT-CY5 (RNA, G4) UUAGGGUUAGGGUUAGGGUUAGGG; assay: microscale thermophoresis (MST); settings: 150 mM KCl; 10 mM Tris-HCl pH 7.5 folding buffer; BBM stock 80 µM mixed 1:1
# [7] = test system: PQS-675-WT-CY5 (RNA, G4) GGGCGGGCGGCCUGCAGGGACAUGGG; assay: microscale thermophoresis (MST); settings: 150 mM KCl; 10 mM Tris-HCl pH 7.5 folding buffer; BBM stock 80 µM mixed 1:1
# [8] = test system: PQS-2302-WT-CY5 (RNA, G4) GGGGAGGAGG; assay: microscale thermophoresis (MST); settings: 150 mM KCl; 10 mM Tris-HCl pH 7.5 folding buffer; BBM stock 80 µM mixed 1:1
binding [1],binding [2],binding [3],binding ([4]; higher than in LiCl),binding [5],KD [6],KD [7],KD [8],binding ([4]; only slightly higher than in LiCl),SMILES
yes,weak,yes,yes,yes,,,,,Cc1ccc2c(c1)sc(-c1ccc(N(C)C)cc1)[n+]2C
,,,,,11550 nM,10.78 nM,264.76 nM,,COc1cc2c3cc1Oc1c(OC)c(OC)cc4c1[C@@H](Cc1ccc(O)c(c1)Oc1ccc(cc1)C[C@@H]3N(C)CC2)N(C)CC4
yes,weak,yes,,yes,,,,weak,CCc1c(C)c2cc3nc(cc4nc(cc5c(CC)c(C)c(cc1[nH]2)n5C)C(C)=C4CCC(=O)O)C(CCC(=O)O)=C3C

# Source: PMC9904497 (2023)
